ChEMBL document CHEMBL1649499, “Nine-hospital study comparing broth microdilution and Etest method results for vancomycin and daptomycin against methicillin-resistant Staphylococcus aureus” (2009)
≈ marks a conversion by molar mass, not a printed value.

Key:
Staphylococcus aureus [1] = experiment: Antibacterial activity against methicillin-resistant Staphylococcus aureus by broth microdilution method; type: functional
Staphylococcus aureus [2] = experiment: Antibacterial activity against methicillin-resistant Staphylococcus aureus by Etest method; type: functional

Compound	MIC (Staphylococcus aureus [1])	MIC (Staphylococcus aureus [2])
CCCCCCCCCC(=O)N[C@@H](Cc1c[nH]c2ccccc12)C(=O)N[C@H](CC(N)=O)C(=O)N[C@@H](CC(=O)O)C(=O)N[C@@H]1C(=O)NCC(=O)N[C@@H](CCCN)C(=O)N[C@@H](CC(=O)O)C(=O)N[C@H](C)C(=O)N[C@@H](CC(=O)O)C(=O)NCC(=O)N[C@H](CO)C(=O)N[C@@H]([C@H](C)CC(=O)O)C(=O)N[C@@H](CC(=O)c2ccccc2N)C(=O)O[C@@H]1C	≤ 0.25 µg/mL	0.38 µg/mL (≈ 0.234 µM)
CN[C@H](CC(C)C)C(=O)N[C@H]1C(=O)N[C@@H](CC(N)=O)C(=O)N[C@H]2C(=O)N[C@H]3C(=O)N[C@H](C(=O)N[C@H](C(=O)O)c4cc(O)cc(O)c4-c4cc3ccc4O)[C@H](O)c3ccc(c(Cl)c3)Oc3cc2cc(c3O[C@@H]2O[C@H](CO)[C@@H](O)[C@H](O)[C@H]2O[C@H]2C[C@](C)(N)[C@H](O)[C@H](C)O2)Oc2ccc(cc2Cl)[C@H]1O [VANCOMYCIN]	> 1 µg/mL	–
